Measured values from US9802937B2, “Substituted pyrazolo{4,3-D}pyrimidines as kinase inhibitors” (ORIGENIS GMBH, priority 2011, dated 2017).

Experiments:
[1] = biological target: T1, SYK kinase (Homo sapiens, UniProt P43405); experiment: SYK Assay (OMNIA KINASE ASSAY, SOX peptide fluorescence); type: biochemical; conditions: apparent Ki calculated from the IC50 using the Cheng-Prusoff equation; 1 mM ATP, 30° C.; read-out: SYK Activities: Ki
T1 construct: purchased Invitrogen, Carlsbad
Summary of the method: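 Continuous Omnia assay: SYK phosphorylation of SOX-labelled Tyr 7 peptide (10 µM) with 1 mM ATP and 0.2 mM DTT at 30 °C. Fluorescence (ex 360/em 485 nm) read every 30 s for 30 min. Reaction velocity versus inhibitor concentration gives IC50, converted to apparent Ki by Cheng-Prusoff.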

[2] = biological target: MYLK (Homo sapiens, UniProt Q15746); experiment: MYLK Assay (LanthaScreen Eu Kinase Binding Assay); conditions: 5 nM MYLK, 30 nM tracer 236, RT 1 h; read-out: MYLK Activities: IC50
Description: In the assay LanthaScreen™ Eu Kinase Binding Assay by Invitrogen Corporation (Carlsbad) the effect of invention of a compound on the phosphorylation is determined by measurement of fluorescence intensity emission ratio based on the binding and displacement of a proprietary, Alexa Fluor® 647-labeled, ATP-competitive kinase inhibitor scaffold (kinase tracer) to the kinase of interest as described above.
To the wells of an 384 well small volume plate (Greiner, Frickenhausen) are added (i) the compound under test in 5% is DMSO/distilled water (5 μl), (ii) 5 μl of the kinase antibody mixture resulting in a final concentration 5 nM MYLK, 2 nM EU-Anti-GST antibody in 1× kinase buffer A. The reaction was started with addition of (iii) 5 μl resulting in a final concentration of 30 nM tracer 236. The assay plate was incubated at RT for 1 h and fluorescence intensity readings were collected using a TECAN M1000 at two wavelengths of λex 340/λem 615 nm and λex 340/λem 665 nm with a delay time of 100 μs and an integration time of 200 μs after 60 minutes. The emission ratio was calculated by division of the acceptor/tracer emission ([…]) by the antibody/donor emission ([…]). The inhibitor concentration was plotted versus the emission ratio to determine the IC50 using XLFit 5.0 (IDBS, Guildford) to fit to a sigmoidal dose response curve with a variable slope.

[3] = biological target: LRRK2 (Homo sapiens, UniProt Q5S007); experiment: LRRK2-LRRK2 G2019S-Assay (LanthaScreen Eu Kinase Binding Assay); conditions: 5 nM LRRK2 or their mutants, 10 nM tracer 236, RT 1 h; read-out: LRRK2 Activities: IC50
Summary of the method: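 TR-FRET tracer-displacement binding assay with 5 nM LRRK2 or mutant, 2 nM Eu-anti-GST antibody and 10 nM tracer 236 in kinase buffer A. Incubated 1 h at RT; 665/615 nm emission ratio read (ex 340 nm). IC50 from variable-slope sigmoidal fit.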

[4] = system: JAK kinases; conditions: cited from earlier work
[5] = system: refractory NHL and chronic lymphocytic leukemia; conditions: phase II; cited from earlier work
[6] = system: Syk; conditions: various stimuli, including FcepsilonR1 and BCR induced Syk activation; cited from earlier work
[7] = system: lymphoma cell lines and primary human lymphoma samples; conditions: cited from earlier work

Chain of LRRK2 (Q5S007 970-2527 limits assumed): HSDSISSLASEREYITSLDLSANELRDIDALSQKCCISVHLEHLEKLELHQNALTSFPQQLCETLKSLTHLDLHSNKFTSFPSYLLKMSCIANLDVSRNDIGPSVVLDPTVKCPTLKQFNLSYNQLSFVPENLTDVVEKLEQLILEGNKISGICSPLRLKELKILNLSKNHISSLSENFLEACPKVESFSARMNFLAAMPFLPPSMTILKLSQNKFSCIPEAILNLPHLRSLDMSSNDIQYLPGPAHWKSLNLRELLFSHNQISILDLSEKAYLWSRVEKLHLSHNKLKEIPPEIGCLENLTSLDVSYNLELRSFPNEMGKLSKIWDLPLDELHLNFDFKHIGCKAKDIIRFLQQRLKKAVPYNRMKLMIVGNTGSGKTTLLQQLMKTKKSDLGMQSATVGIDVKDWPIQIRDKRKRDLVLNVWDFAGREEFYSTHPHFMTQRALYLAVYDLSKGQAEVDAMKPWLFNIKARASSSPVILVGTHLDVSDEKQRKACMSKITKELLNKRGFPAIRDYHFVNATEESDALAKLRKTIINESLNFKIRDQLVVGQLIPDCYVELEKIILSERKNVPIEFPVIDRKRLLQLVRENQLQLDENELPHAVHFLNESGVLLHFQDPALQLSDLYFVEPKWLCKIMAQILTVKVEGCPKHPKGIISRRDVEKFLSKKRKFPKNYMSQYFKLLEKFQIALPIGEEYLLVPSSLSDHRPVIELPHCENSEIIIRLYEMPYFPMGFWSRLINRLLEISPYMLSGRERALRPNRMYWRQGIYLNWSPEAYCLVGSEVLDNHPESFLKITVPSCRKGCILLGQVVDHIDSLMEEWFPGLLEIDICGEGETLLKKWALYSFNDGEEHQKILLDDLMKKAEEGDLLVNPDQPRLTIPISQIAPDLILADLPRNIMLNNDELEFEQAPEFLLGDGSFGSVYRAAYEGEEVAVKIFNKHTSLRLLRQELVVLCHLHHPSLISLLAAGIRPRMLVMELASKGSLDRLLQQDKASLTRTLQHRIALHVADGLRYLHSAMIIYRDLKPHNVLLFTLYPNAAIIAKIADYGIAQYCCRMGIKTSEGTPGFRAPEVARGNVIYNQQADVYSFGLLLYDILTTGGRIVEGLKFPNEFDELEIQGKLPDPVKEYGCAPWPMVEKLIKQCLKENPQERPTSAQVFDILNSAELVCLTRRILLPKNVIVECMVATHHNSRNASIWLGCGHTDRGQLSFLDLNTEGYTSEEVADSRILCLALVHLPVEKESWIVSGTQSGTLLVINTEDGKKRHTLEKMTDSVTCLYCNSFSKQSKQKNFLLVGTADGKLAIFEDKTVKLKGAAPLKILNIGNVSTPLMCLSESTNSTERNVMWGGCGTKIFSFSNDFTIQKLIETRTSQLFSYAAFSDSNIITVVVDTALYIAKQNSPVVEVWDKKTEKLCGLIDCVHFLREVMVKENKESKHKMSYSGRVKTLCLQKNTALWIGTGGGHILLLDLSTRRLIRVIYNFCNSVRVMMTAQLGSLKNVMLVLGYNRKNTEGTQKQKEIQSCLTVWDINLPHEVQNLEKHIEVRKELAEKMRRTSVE
Chain of MYLK (Q15746 whole entry): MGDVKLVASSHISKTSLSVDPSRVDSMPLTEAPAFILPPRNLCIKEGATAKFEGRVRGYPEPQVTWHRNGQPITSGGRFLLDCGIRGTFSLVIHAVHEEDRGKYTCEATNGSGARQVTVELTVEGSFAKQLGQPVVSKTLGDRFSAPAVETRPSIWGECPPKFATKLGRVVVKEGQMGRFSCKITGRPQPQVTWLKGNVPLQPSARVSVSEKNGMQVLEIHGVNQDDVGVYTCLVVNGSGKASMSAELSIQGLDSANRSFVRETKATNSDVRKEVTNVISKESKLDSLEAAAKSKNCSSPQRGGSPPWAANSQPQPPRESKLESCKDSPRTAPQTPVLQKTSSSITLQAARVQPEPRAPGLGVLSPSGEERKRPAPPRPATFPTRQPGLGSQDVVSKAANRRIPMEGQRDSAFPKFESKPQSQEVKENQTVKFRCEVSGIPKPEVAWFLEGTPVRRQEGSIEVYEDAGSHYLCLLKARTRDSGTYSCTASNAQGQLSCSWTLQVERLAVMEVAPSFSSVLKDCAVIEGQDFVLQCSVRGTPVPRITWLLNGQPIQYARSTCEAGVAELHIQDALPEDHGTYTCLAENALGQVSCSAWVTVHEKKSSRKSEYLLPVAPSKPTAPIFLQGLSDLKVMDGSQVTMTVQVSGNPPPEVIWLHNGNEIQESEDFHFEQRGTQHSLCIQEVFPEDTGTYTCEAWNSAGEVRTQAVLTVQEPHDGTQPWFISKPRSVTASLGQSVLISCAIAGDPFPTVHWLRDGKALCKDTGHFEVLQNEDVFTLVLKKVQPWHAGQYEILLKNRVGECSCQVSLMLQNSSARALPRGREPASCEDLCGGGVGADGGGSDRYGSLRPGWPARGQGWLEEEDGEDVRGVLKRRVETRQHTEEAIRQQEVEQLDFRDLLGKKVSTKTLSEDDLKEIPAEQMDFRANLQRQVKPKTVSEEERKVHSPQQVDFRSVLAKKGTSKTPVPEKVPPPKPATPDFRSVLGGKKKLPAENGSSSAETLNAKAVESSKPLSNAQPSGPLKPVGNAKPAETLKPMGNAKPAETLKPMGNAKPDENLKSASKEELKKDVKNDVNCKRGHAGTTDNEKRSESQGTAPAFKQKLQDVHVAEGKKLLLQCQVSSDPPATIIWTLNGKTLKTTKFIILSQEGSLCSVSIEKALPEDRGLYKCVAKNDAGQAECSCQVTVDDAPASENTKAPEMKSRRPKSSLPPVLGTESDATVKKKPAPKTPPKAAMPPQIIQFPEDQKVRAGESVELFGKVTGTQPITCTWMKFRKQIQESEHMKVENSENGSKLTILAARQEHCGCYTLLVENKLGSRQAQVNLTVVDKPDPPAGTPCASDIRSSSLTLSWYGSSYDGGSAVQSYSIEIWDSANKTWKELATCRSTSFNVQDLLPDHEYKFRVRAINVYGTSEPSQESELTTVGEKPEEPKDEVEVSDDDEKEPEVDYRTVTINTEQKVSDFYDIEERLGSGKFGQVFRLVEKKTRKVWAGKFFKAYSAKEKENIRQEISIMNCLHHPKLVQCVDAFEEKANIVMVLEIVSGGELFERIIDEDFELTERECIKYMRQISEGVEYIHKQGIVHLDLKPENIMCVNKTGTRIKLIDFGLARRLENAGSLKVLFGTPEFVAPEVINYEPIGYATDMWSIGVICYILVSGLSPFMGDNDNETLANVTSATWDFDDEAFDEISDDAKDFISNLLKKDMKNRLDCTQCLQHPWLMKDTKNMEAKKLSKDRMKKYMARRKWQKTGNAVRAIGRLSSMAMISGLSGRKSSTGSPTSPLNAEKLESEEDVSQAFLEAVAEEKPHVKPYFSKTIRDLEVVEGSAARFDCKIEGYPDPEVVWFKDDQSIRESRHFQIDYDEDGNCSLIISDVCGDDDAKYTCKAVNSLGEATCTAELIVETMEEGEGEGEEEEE

Ki [1] [nM] | IC50 [2] [µM] | IC50 [3] [nM] | Structure (SMILES) | activity against JAK kinases [4] | clinical result [5] | inhibition of ITAM signaling [6] | BCR signaling ([7]; lymphoma cell lines and primary human lymphoma samples) | apoptosis ([7]; lymphoma cell lines)
< 10 | < 5 | 10 to 100 | CN1CCN(c2ccc(Nc3nc(-c4cccc(S(N)(=O)=O)c4)nc4cn[nH]c34)cc2)CC1 [Example #182, 3-(7-((4-(4-methylpiperazin-1-yl)phenyl)amino)-1H-pyrazolo[4,3-d]pyrimidin-5-yl)benzenesulfonamide] |  |  |  |  | 
< 10 | < 5 | 100 to 1000 | CN1CCN(c2ccc(Nc3nc(-c4cccc(NS(C)(=O)=O)c4)nc4cn[nH]c34)cc2)CC1 [Example #187, N-(3-(7-((4-(4-methylpiperazin-1-yl)phenyl)amino)-1H-pyrazolo[4,3-d]pyrimidin-5-yl)phenyl)methanesulfonamide] |  |  |  |  | 
< 10 | < 5 | 100 to 1000 | CS(=O)(=O)Nc1cccc(-c2nc(Nc3ccc(N4CCNCC4)cc3)c3[nH]ncc3n2)c1 [Example #188, N-(3-(7-((4-(piperazin-1-yl)phenyl)amino)-1H-pyrazolo[4,3-d]pyrimidin-5-yl)phenyl)methanesulfonamide] |  |  |  |  | 
< 10 | < 5 | 100 to 1000 | COc1ccc(Nc2nc(-c3cccc(NS(C)(=O)=O)c3)nc3cn[nH]c23)cc1OC [Example #189, N-(3-(7-((3,4-dimethoxyphenyl)amino)-1H-pyrazolo[4,3-d]pyrimidin-5-yl)phenyl)methanesulfonamide] |  |  |  |  | 
< 10 | < 5 | 10 to 100 | CS(=O)(=O)Nc1cccc(-c2nc(Nc3ccc4c(c3)NC(=O)CC4)c3[nH]ncc3n2)c1 [Example #190, N-(3-(7-((2-oxo-1,2,3,4-tetrahydroquinolin-7-yl)amino)-1H-pyrazolo[4,3-d]pyrimidin-5-yl)phenyl)methanesulfonamide] |  |  |  |  | 
< 10 | < 5 | 100 to 1000 | CC(=O)N1CCN(c2ccc(Nc3nc(-c4cccc(NS(C)(=O)=O)c4)nc4cn[nH]c34)cc2)CC1 [Example #191, N-(3-(7-((4-(4-acetylpiperazin-1-yl)phenyl)amino)-1H-pyrazolo[4,3-d]pyrimidin-5-yl)phenyl)methanesulfonamide] |  |  |  |  | 
< 10 | < 5 | 100 to 1000 | CSc1cccc(-c2nc(Nc3ccc(N4CCN(C)CC4)cc3)c3[nH]ncc3n2)c1 [Example #225, N-(4-(4-methylpiperazin-1-yl)phenyl)-5-(3-(methylthio)phenyl)-1H-pyrazolo[4,3-d]pyrimidin-7-amine] |  |  |  |  | 
< 10 | < 5 | 10 to 100 | NS(=O)(=O)c1cccc(-c2nc(Nc3ccc4c(c3)NC(=O)CC4)c3[nH]ncc3n2)c1 [Example #238, 3-(7-((2-oxo-1,2,3,4-tetrahydroquinolin-7-yl)amino)-1H-pyrazolo[4,3-d]pyrimidin-5-yl)benzenesulfonamide] |  |  |  |  | 
< 10 | < 5 | 100 to 1000 | COc1cc(Nc2nc(-c3cccc(S(N)(=O)=O)c3)nc3cn[nH]c23)ccc1N1CCOCC1 [Example #240, 3-(7-((3-methoxy-4-morpholinophenyl)amino)-1H-pyrazolo[4,3-d]pyrimidin-5-yl)benzenesulfonamide] |  |  |  |  | 
< 10 | < 5 | < 10 | c1cc(N2CCOCC2)ccc1Nc1nc(-c2ccc3cn[nH]c3c2)nc2cn[nH]c12 [Example #247, 5-(1H-indazol-6-yl)-N-(4-morpholinophenyl)-1H-pyrazolo[4,3-d]pyrimidin-7-amine] |  |  |  |  | 
< 10 | < 5 | 100 to 1000 | CN1CCN(c2ccc(Nc3nc(-c4ccc5cn[nH]c5c4)nc4cn[nH]c34)cc2)CC1 [Example #248, 5-(1H-indazol-6-yl)-N-(4-(4-methylpiperazin-1-yl)phenyl)-1H-pyrazolo[4,3-d]pyrimidin-7-amine] |  |  |  |  | 
10 to 100 | < 5 | 100 to 1000 | CS(=O)(=O)c1cccc(Nc2nc(-c3cccs3)nc3cn[nH]c23)c1 [Example #254, N-(3-(methylsulfonyl)phenyl)-5-(thiophen-2-yl)-1H-pyrazolo[4,3-d]pyrimidin-7-amine] |  |  |  |  | 
10 to 100 | < 5 | 100 to 1000 | C[S+]([O-])c1cccc(Nc2nc(-c3cccs3)nc3cn[nH]c23)c1 (centres unmarked) [Example #268, N-(3-(methylsulfinyl)phenyl)-5-(thiophen-2-yl)-1H-pyrazolo[4,3-d]pyrimidin-7-amine] |  |  |  |  | 
< 10 | < 5 | 100 to 1000 | CN1CCN(c2ccc(Nc3nc(-c4ccccc4F)nc4cn[nH]c34)cc2)CC1 [Example #275, 5-(2-fluorophenyl)-N-(4-(4-methylpiperazin-1-yl)phenyl)-1H-pyrazolo[4,3-d]pyrimidin-7-amine] |  |  |  |  | 
10 to 100 | < 5 | 100 to 1000 | Fc1ccccc1-c1nc(Nc2ccc(N3CCN(C4CC4)CC3)cc2)c2[nH]ncc2n1 [Example #279, N-(4-(4-cyclopropylpiperazin-1-yl)phenyl)-5-(2-fluorophenyl)-1H-pyrazolo[4,3-d]pyrimidin-7-amine] |  |  |  |  | 
< 10 | < 5 | 10 to 100 | COc1ccc(Nc2nc(-c3ccc4cn[nH]c4c3)nc3cn[nH]c23)cc1OC [Example #280, N-(3,4-dimethoxyphenyl)-5-(1H-indazol-6-yl)-1H-pyrazolo[4,3-d]pyrimidin-7-amine] |  |  |  |  | 
10 to 100 | < 5 | 100 to 1000 | CN1CCN(C2CCN(c3ccc(Nc4nc(-c5c(F)cccc5F)nc5cn[nH]c45)cc3)CC2)CC1 [Example #284, 5-(2,6-difluorophenyl)-N-(4-(4-(4-methylpiperazin-1-yl)piperidin-1-yl)phenyl)-1H-pyrazolo[4,3-d]pyrimidin-7-amine] |  |  |  |  | 
< 10 | < 5 | 100 to 1000 | CN1CCN(C2CCN(c3ccc(Nc4nc(-c5cccs5)nc5cn[nH]c45)cc3)CC2)CC1 [Example #290, N-(4-(4-(4-methylpiperazin-1-yl)piperidin-1-yl)phenyl)-5-(thiophen-2-yl)-1H-pyrazolo[4,3-d]pyrimidin-7-amine] |  |  |  |  | 
< 10 | < 5 | 100 to 1000 | c1csc(-c2nc(Nc3ccc(N4CCN(C5CC5)CC4)cc3)c3[nH]ncc3n2)c1 [Example #293, N-(4-(4-cyclopropylpiperazin-1-yl)phenyl)-5-(thiophen-2-yl)-1H-pyrazolo[4,3-d]pyrimidin-7-amine] |  |  |  |  | 
10 to 100 | < 5 | 100 to 1000 | O=C(c1ccc(Nc2nc(-c3cccs3)nc3cn[nH]c23)cc1)N1CCOCC1 [Example #294, morpholino(4-((5-(thiophen-2-yl)-1H-pyrazolo[4,3-d]pyrimidin-7-yl)amino)phenyl)methanone] |  |  |  |  | 
< 10 | < 5 | 100 to 1000 | c1csc(-c2nc(Nc3ccc(CN4CCOCC4)cc3)c3[nH]ncc3n2)c1 [Example #295, N-(4-(morpholinomethyl)phenyl)-5-(thiophen-2-yl)-1H-pyrazolo[4,3-d]pyrimidin-7-amine] |  |  |  |  | 
 |  |  | COc1cc(Nc2ncc(F)c(Nc3ccc4c(n3)NC(=O)C(C)(C)O4)n2)cc(OC)c1OC [Example R406] | active | favorable results | inhibit ITAM signaling | attenuates BCR signaling | resulting in apoptosis of the former
